According to patent US20210395210A1, “INHIBITION OF BACTERIAL CHAPERONIN SYSTEMS” (THE TRUSTEES OF INDIANA UNIVERSITY, priority 2018, published 2021):
Where two headings read alike, the source gives them in different places.

Experiments:
human HSP60/10 = target: T1, human HSP60/10 (Homo sapiens, UniProt P10809); test: HSP60/10-mediated dMDH refolding assay; type: biochemical
T1 construct: octa-Histidine tag (TEV-cleavable) (N, cleaved yes); made in house; host or cells: HSP60 in E. coli Rosetta 2 (DE3); HSP10 in Rosetta 2 (DE3) pLysS
Method in brief: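 Refolding activity followed via MDH turnover, measured as the A340 drop from NADH with sodium mesoxalate, after ATP-driven chaperonin cycling at 37° C and EDTA quench. Refolding mix: 50 nM GroEL or HSP60, 60 nM GroES or HSP10, 12 nM denatured MDH, 1 mM ATP, compound 100 μM–46 nM (3-fold). IC50s averaged from quadruplicates.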

[1] = test system: Enterococcus faecium (ATCC 19434); test: Bacterial proliferation assay, E. faecium; type: cell-based
Method in brief: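 This stagnant growth-inhibition assay used E. faecium (ATCC 19434) in cation-adjusted Brain Heart Infusion medium. Diluted cultures (OD600 0.017) were added to clear flat-bottom 384-well plates containing 0.5 μL compound in 20 μL media. After 24 h without shaking at 37° C., absorbance at 600 nm was measured, corrected with bacteria-free plates, and EC50 values were averaged from quadruplicates.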

[2] = test system: Klebsiella Pneumonia (ATCC 13883); test: Bacterial proliferation assay, K. pneumoniae; type: cell-based
Method in brief: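 Growth inhibition of K. pneumoniae (ATCC 13883) was measured in cation-adjusted BHI broth. An overnight culture was sub-cultured 1:5 for 1-2 hours, then diluted to OD600 of 0.017 and dispensed into compound-stamped 384-well plates. Plates were sealed with oxygen-permeable membranes and incubated without shaking at 37° C. for 6-8 h. Absorbance at 600 nm was corrected against bacteria-free control plates, and EC50 was averaged from quadruplicate replicates.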

[3] = test system: Acinetobacter baumannii (ATCC 19606); test: Bacterial proliferation assay, A. baumannii; type: cell-based
Method in brief: (§1)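 Cation-adjusted BHI (25 mg/L Ca2+, 12.5 mg/L Mg2+); inoculum OD600 0.017; static 37 °C. Read OD600 at 6-8 h for S. aureus, E. cloacae, P. aeruginosa; 24 h for A. baumannii.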

[4] = test system: Pseudomonas aeruginosa (ATCC 10145); test: Bacterial proliferation assay, P. aeruginosa; type: cell-based
Method in brief: as §1

[5] = human HSP60/10-dMDH refolding assay, read-out: HSP60/10-dMDH Refolding IC50
[6] = log(IC50) ± standard deviation, human HSP60/10-dMDH refolding assay, read-out: HSP60/10-dMDH Refolding Assay log(IC50) (converted)
[7] = ATCC19434, OD600 at 24 h, read-out: Bacterial Proliferation EC50 E. faecium
[8] = ATCC19434, log of EC50 (μM scale), with standard deviation, read-out: log(EC50) Bacterial Proliferation Assay C. faecium (converted)
[9] = ATCC13883, OD600 at 6-8 h, read-out: Bacterial Proliferation EC50 K. pneumoniae
[10] = ATCC13883, log of EC50 (μM scale), with standard deviation, read-out: log(EC50) Bacterial Proliferation Assay K. pneumoniae (converted)
[11] = ATCC19606, OD600 at 24 h, read-out: Bacterial Proliferation EC50 A. baumannii
[12] = ATCC19606, log of EC50 (μM scale), with standard deviation, read-out: log(EC50) Bacterial Proliferation Assay A. baumannii (converted)
[13] = ATCC10145, OD600 at 6-8 h, read-out: Bacterial Proliferation EC50 P. aeruginosa
[14] = ATCC10145, log of EC50 (μM scale), with standard deviation, read-out: log(EC50) Bacterial Proliferation Assay P. aeruginosa (converted)
[15] = ATCC19434, 24 h, read-out: Bacterial Proliferation EC50 E. faecium
[16] = ATCC19434, read-out: log(EC50) Bacterial Proliferation Assay C. faecium (converted)
[17] = ATCC13883, read-out: Bacterial Proliferation EC50 K. pneumoniae
[18] = ATCC13883, read-out: log(EC50) Bacterial Proliferation Assay K. pneumoniae (converted)
[19] = ATCC19606, 24 h, read-out: Bacterial Proliferation EC50 A. baumannii
[20] = ATCC19606, read-out: log(EC50) Bacterial Proliferation Assay A. baumannii (converted)
[21] = ATCC10145, read-out: Bacterial Proliferation EC50 P. aeruginosa
[22] = ATCC10145, read-out: log(EC50) Bacterial Proliferation Assay P. aeruginosa (converted)

T1 sequence (P10809 27-573): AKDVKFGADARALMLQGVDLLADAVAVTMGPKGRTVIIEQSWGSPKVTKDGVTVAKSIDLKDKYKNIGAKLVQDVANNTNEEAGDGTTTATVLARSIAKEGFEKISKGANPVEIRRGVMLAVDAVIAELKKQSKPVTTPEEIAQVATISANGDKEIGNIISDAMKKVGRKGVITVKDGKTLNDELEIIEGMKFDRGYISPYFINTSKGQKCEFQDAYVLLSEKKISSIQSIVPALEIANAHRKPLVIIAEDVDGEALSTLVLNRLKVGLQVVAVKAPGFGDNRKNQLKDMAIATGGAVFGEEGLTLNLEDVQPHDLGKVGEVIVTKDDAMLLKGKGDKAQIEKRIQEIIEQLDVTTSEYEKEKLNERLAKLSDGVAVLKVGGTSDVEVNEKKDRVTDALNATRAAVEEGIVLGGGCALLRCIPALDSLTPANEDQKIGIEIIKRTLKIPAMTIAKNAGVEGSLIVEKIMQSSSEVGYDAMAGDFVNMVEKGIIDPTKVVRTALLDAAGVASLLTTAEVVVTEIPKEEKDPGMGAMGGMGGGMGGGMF

Row | SMILES | IC50 (human HSP60/10; [5]) | IC50 (human HSP60/10; [6]) | EC50 [1, 7] | EC50 [1, 8] | EC50 [2, 9] | EC50 [2, 10] | EC50 [3, 11] | EC50 [3, 12] | EC50 [4, 13] | EC50 [4, 14] | EC50 [1, 15] | EC50 [1, 16] | EC50 [2, 17] | EC50 [2, 18] | EC50 [3, 19] | EC50 [3, 20] | EC50 [4, 21] | EC50 [4, 22] | IC50 (human HSP60/10) | HSP60/10-dMDH Refolding Assay log(IC50) (human HSP60/10; log(IC50) ± standard deviation, human HSP60/10-dMDH refolding assay)
1 | CC1(C)S[C@@H]2[C@H](NC(=O)[C@H](N)c3ccccc3)C(=O)N2[C@H]1C(=O)O [Ampicillin, ampicillin, reference compound] | > 100 µM | > 100 µM | 6.9 µM | 6.92 µM | > 100 µM | > 100 µM | > 100 µM | > 100 µM | > 100 µM | > 100 µM |  |  |  |  |  |  |  |  |  | 
2 | COc1c(Br)cc(Br)cc1C(=O)Nc1ccc(Sc2nc3ccccc3s2)c(Cl)c1 [Compound 29, N-(4-(Benzo[d]thiazol-2-ylthio)-3-chlorophenyl)-3,5-dibromo-2-methoxybenzamide] | > 100 µM | > 100 µM | > 100 µM | > 100 µM | > 100 µM | > 100 µM | > 100 µM | > 100 µM | > 100 µM | > 100 µM |  |  |  |  |  |  |  |  |  | 
3 | O=C(Nc1ccccc1)c1cc(Br)ccc1O [Compound 15, 5-Bromo-2-hydroxy-N-phenylbenzamide] | > 100 µM | > 100 µM | > 100 µM | > 100 µM | 78 µM | 77.6 µM | > 100 µM | > 100 µM | > 100 µM | > 100 µM |  |  |  |  |  |  |  |  |  | 
4 | COc1c(Br)cccc1C(=O)Nc1ccc(Sc2nc3ccccc3s2)cc1 [Compound 34, N-(4-(Benzo[d]thiazol-2-ylthio)phenyl)-3-bromo-2-methoxybenzamide] | > 100 µM | > 100 µM | > 100 µM | > 100 µM | > 100 µM | > 100 µM | > 100 µM | > 100 µM | > 100 µM | > 100 µM |  |  |  |  |  |  |  |  |  | 
5 | O=C(Nc1ccc(Sc2nc3ccccc3s2)cc1)c1ccccc1O [Compound 8, N-(4-(Benzo[d]thiazol-2-ylthio)phenyl)-2-hydroxybenzamide] | > 100 µM | > 100 µM | 67 µM | 67.6 µM | > 100 µM | > 100 µM | > 100 µM | > 100 µM | > 100 µM | > 100 µM |  |  |  |  |  |  |  |  |  | 
6 | COc1ccc(Br)cc1C(=O)Nc1cccc(Cl)c1 [Compound 39, 5-Bromo-N-(3-chlorophenyl)-2-methoxybenzamide] | > 100 µM | > 100 µM | > 100 µM | > 100 µM | > 100 µM | > 100 µM | > 100 µM | > 100 µM | > 100 µM | > 100 µM |  |  |  |  |  |  |  |  |  | 
7 | O=C(Nc1ccc(Sc2nc3ccccc3s2)c(Cl)c1)c1cccc(Br)c1 [Compound 18, N-(4-(Benzo[d]thiazol-2-ylthio)-3-chlorophenyl)-3-bromobenzamide] | > 100 µM | > 100 µM | > 100 µM | > 100 µM | > 100 µM | > 100 µM | > 100 µM | > 100 µM | > 100 µM | > 100 µM |  |  |  |  |  |  |  |  |  | 
8 | COc1c(Br)cccc1C(=O)Nc1cccc(Cl)c1 [Compound 38] | > 100 µM | > 100 µM | > 100 µM | > 100 µM | > 100 µM | > 100 µM | > 100 µM | > 100 µM | > 100 µM | > 100 µM |  |  |  |  |  |  |  |  |  | 
9 | O=C(Nc1ccc(Sc2nc3ccccc3s2)cc1)c1cccc(Br)c1O [Compound 6, N-(4-(Benzo[d]thiazol-2-ylthio)phenyl)-3-bromo-2-hydroxybenzamide] | 26 µM | 25.7 µM |  |  |  |  |  |  |  |  | 11 µM | 11.2 µM | > 100 µM | > 100 µM | 12 µM | 11.5 µM | > 100 µM | > 100 µM |  | 
10 | COc1c(Br)cc(Br)cc1C(=O)Nc1ccc(Sc2nc3ccccc3s2)cc1 [Compound 33, N-(4-(Benzo[d]thiazol-2-ylthio)phenyl)-3,5-dibromo-2-methoxybenzamide] | > 100 µM | > 100 µM | > 100 µM | > 100 µM | > 100 µM | > 100 µM | > 100 µM | > 100 µM | > 100 µM | > 100 µM |  |  |  |  |  |  |  |  |  | 
11 | COc1ccc(Br)cc1C(=O)Nc1ccc(Sc2nc3ccccc3s2)c(Cl)c1 [Compound 31, N-(4-(Benzo[d]thiazol-2-ylthio)-3-chlorophenyl)-5-bromo-2-methoxybenzamide] | > 100 µM | > 100 µM | > 100 µM | > 100 µM | > 100 µM | > 100 µM | > 100 µM | > 100 µM | > 100 µM | > 100 µM |  |  |  |  |  |  |  |  |  | 
12 | O=C(Nc1ccccc1)c1cc(Br)cc(Br)c1O [Compound 13, 3,5-Dibromo-2-hydroxy-N-phenylbenzamide] | 63 µM | 63.1 µM |  |  |  |  |  |  |  |  | > 100 µM | > 100 µM | > 100 µM | > 100 µM | > 100 µM | > 100 µM | > 100 µM | > 100 µM |  | 
13 | O=C(Nc1ccc(Sc2nc3ccccc3s2)cc1)c1cc(Br)cc(Br)c1 [Compound 20, N-(4-(Benzo[d]thiazol-2-ylthio)phenyl)-3,5-dibromobenzamide] | > 100 µM | > 100 µM | > 100 µM | > 100 µM | > 100 µM | > 100 µM | > 100 µM | > 100 µM | > 100 µM | > 100 µM |  |  |  |  |  |  |  |  |  | 
14 | O=C(Nc1ccccc1)c1ccccc1O [Compound 16, 2-Hydroxy-N-phenylbenzamide] |  |  |  |  |  |  |  |  |  |  | > 100 µM | > 100 µM | > 100 µM | > 100 µM | > 100 µM | > 100 µM | > 100 µM | > 100 µM | > 100 µM | >2
15 | COc1c(Br)cccc1C(=O)Nc1ccc(Sc2nc3ccccc3s2)c(Cl)c1 [Compound 30, N-(4-(Benzo[d]thiazol-2-ylthio)-3-chlorophenyl)-3-bromo-2-methoxybenzamide] | > 100 µM | > 100 µM | > 100 µM | > 100 µM | > 100 µM | > 100 µM | > 100 µM | > 100 µM | > 100 µM | > 100 µM |  |  |  |  |  |  |  |  |  | 
16 | COc1ccc(Br)cc1C(=O)Nc1ccccc1 [Compound 43, 5-Bromo-2-methoxy-N-phenylbenzamide] | > 100 µM | > 100 µM | > 100 µM | > 100 µM | > 100 µM | > 100 µM | > 100 µM | > 100 µM | > 100 µM | > 100 µM |  |  |  |  |  |  |  |  |  | 
